The nature of data set [1]: Effect of volatile aldehydes on amine-based malodor (headspace GC/MS). The note with it: 1 μL aldehyde in 10 mL headspace vial. Here is the method:
A 1 μL sample of each volatile aldehyde listed in Table 6 and each Accord (A, B, and C) listed in Tables 1 to 3 is pipeted into individual 10 mL silanized headspace vials. […] Repeat 4 times for each sample (2 for butylamine analysis and 2 for butanethiol analysis).
For amine analysis, the samples are injected immediately into the system after the malodor is introduced.

Data set [2] in a line: Effect of volatile aldehydes on sulfur-based malodor (headspace GC/MS). The note with it: 30 minutes at room temperature, 1 μL aldehyde in 10 mL headspace vial. Here is the method: A 1 μL sample of each volatile aldehyde listed in Table 6 and each Accord (A, B, and C) listed in Tables 1 to 3 is pipeted into individual 10 mL silanized headspace vials. […] Repeat 4 times for each sample (2 for butylamine analysis and 2 for butanethiol analysis). […]

Data set [3] is described as follows: Vapor pressure at 25° C. Type of data set: physicochemical. Here is the method: Suitable acid catalysts have a VP, as reported by Scifinder, in the range of about 0.001 torr to about 38 torr, measured at 25° C., alternatively about 0.001 torr to about 14 torr, alternatively from about 0.001 to about 1, alternatively from about 0.001 to about 0.020, alternatively about 0.005 to about 0.020, alternatively about 0.010 to about 0.020.

Regarding 3,4-Trimethoxy-benzylaldehyde, the “At least 20% butylamine reduction at 40 seconds?” value (“At least 20% butylamine reduction” below) in data set [1] is “No”. Besides, the “At least 20% butanethiol reduction at 30 minutes?” value (shortened to “At least 20% butanethiol reduction”) in data set [2] is “No”.

`COc1cc(OC)c(OC)cc1C=O` [2,4,5 Trimethoxy Benzaldehyde]: the “At least 20% butylamine reduction” value in data set [1] is recorded as “No”. Moreover, the “At least 20% butanethiol reduction” value in data set [2] is “No”.

Regarding `COc1cc(OC)c(C=O)c(OC)c1` [2,4,6-Trimethoxy-benzylaldehyde], in data set [1], the “At least 20% butylamine reduction” value is given as “No”. The “At least 20% butanethiol reduction” value in data set [2] is recorded as “No”.

With `CCOc1ccccc1C=O` [2-ethoxy benzylaldehyde], the “At least 20% butylamine reduction” value in data set [1] is recorded as “Yes”. The “At least 20% butanethiol reduction” value in data set [2] is reported as “Yes”.

Turning to `CC(C)CC=C(C=O)C(C)C` [2-isopropyl-5-methyl-2-hexenal], the “At least 20% butylamine reduction” value in data set [1] is “Yes”. In data set [2], the “At least 20% butanethiol reduction” value was “Yes”.

Take `CC(C=O)=Cc1ccco1` [2-methyl-3-(2-furyl)-propenal]: the “At least 20% butylamine reduction” value in data set [1] was “No”. Also, the “At least 20% butanethiol reduction” value in data set [2] is reported as “No”.

Regarding `COc1cc(C=O)cc(OC)c1OC` [3,4,5 Trimethoxy Benzaldehyde], in data set [1], the “At least 20% butylamine reduction” value is on record as “No”. For the same compound, the “At least 20% butanethiol reduction” value in data set [2] is “No”.

Take `CC(C)(C)c1ccc(C=O)cc1` [4-tertbutyl benzylaldehyde]: the “At least 20% butylamine reduction” value in data set [1] is “Yes”. Also, in data set [2], the “At least 20% butanethiol reduction” value was “No”.

`Cc1ccc(C=O)o1` [5-methyl furfural]: the “At least 20% butylamine reduction” value in data set [1] was “Yes”. Besides, the “At least 20% butanethiol reduction” value in data set [2] was “Yes”.

On to `Cc1ccc(C=O)s1` [5-methyl-thiophene-carboxaldehyde], for which the “At least 20% butylamine reduction” value in data set [1] is “No”. In data set [2], the “At least 20% butanethiol reduction” value is “Yes”.

In the case of `CC(C)=CCCC(C)CCCC(C)C=O` (stereo not drawn) [Adoxal, 2,6,10-Trimethyl-9-undecenal], the “VP (torr) @25° C.” value in data set [3] (Table 2, materials of Accord B) was found to be 0.007 torr; in data set [3] (Table 3, materials of Accord C), 0.007 torr. The “At least 20% butylamine reduction” value in data set [1] is on record as “Yes”. Besides, the “At least 20% butanethiol reduction” value in data set [2] is on record as “No”.

`CCCCCC(C=O)=Cc1ccccc1` [Amyl cinnamic aldehyde, alpha-Amylcinnamic aldehyde]: the “At least 20% butylamine reduction” value in data set [1] was “No”. Also, the “At least 20% butanethiol reduction” value in data set [2] is “No”.

`O=Cc1ccccc1` [Benzylaldehyde]: in data set [1], the “At least 20% butylamine reduction” value was “Yes”. The “At least 20% butanethiol reduction” value in data set [2] is “No”.

With `CC(C)(C)c1ccc(CCC=O)cc1` [Bourgeonal, 4-t-butylbenzenepropionaldehyde], the “VP (torr) @25° C.” value in data set [3] (Table 3, materials of Accord C) is 0.004 torr. The “At least 20% butylamine reduction” value in data set [1] is listed as “No”. Also, in data set [2], the “At least 20% butanethiol reduction” value was “Yes”.

On to `O=CC=Cc1ccccc1` [Cinnamic aldehyde, 3-phenyl-2-propenal], for which the “At least 20% butylamine reduction” value in data set [1] is given as “Yes”. Also, the “At least 20% butanethiol reduction” value in data set [2] is recorded as “Yes”.

Consider `CC(C)=CCCC(C)CCOCC=O` (stereo not drawn) [Citronelyl Oxyacetaldehyde, Citronellyl oxyacetaldehyde], for which, in data set [1], the “At least 20% butylamine reduction” value is “No”. In addition, the “At least 20% butanethiol reduction” value in data set [2] is reported as “No”.

Turning to `CC(C=O)Cc1ccc(C(C)C)cc1` (stereo not drawn) [Cymal, Alpha-methyl-p-isopropyl phenyl propyl aldehyde], the “VP (torr) @25° C.” value was 0.007 torr in data set [3] (Table 1, materials of Accord A); 0.007 torr in data set [3] (Table 2, materials of Accord B); 0.007 torr in data set [3] (Table 3, materials of Accord C). Besides, in data set [1], the “At least 20% butylamine reduction” value is “Yes”. In data set [2], the “At least 20% butanethiol reduction” value was “No”.

On to `CCCCCCCCCC=O` [Decyl aldehyde], for which the “At least 20% butylamine reduction” value in data set [1] was “Yes”. Moreover, the “At least 20% butanethiol reduction” value in data set [2] is “No”.

As to `CC(=O)OC1CC2CC1C1CC=CC21` (stereo not drawn) [Flor Acetate], the “VP (torr) @25° C.” value in data set [3] (Table 3, materials of Accord C) came out at 0.060 torr.

Turning to `C=CC(C)CCC=C(C)CCC=O` (stereo not drawn) [Floral Super], the “VP (torr) @25° C.” value in data set [3] (Table 1, materials of Accord A) stood at 0.030 torr; in data set [3] (Table 2, materials of Accord B), 0.030 torr; in data set [3] (Table 3, materials of Accord C), 0.030 torr. In data set [1], the “At least 20% butylamine reduction” value is “Yes”. In data set [2], the “At least 20% butanethiol reduction” value is “Yes”.

For `CCC(=O)OC1CC2CC1C1CC=CC21` (stereo not drawn) [Frutene], the “VP (torr) @25° C.” value in data set [3] (Table 3, materials of Accord C) was determined as 0.020 torr.

`CC(CC=O)CCCC(C)(C)O` (stereo not drawn) [Hydroxycitronellal, 7-hydroxy-3,7-dimethyl octan-1-al]: in data set [1], the “At least 20% butylamine reduction” value is reported as “No”. Moreover, the “At least 20% butanethiol reduction” value in data set [2] was “No”.

Consider `C=CCCCCCCCCC=O` [Intreleven Aldehyde, undec-10-en-1-al], for which the “VP (torr) @25° C.” value in data set [3] (Table 1, materials of Accord A) was 0.060 torr; in data set [3] (Table 2, materials of Accord B), 0.060 torr; in data set [3] (Table 3, materials of Accord C), 0.060 torr.

As for `CCCCCCCCCCCC=O` [Lauric aldehyde], the “At least 20% butylamine reduction” value in data set [1] is given as “Yes”. For the same compound, in data set [2], the “At least 20% butanethiol reduction” value is reported as “No”.

Consider `CC1=CC(C)C(C=O)CC1` (stereo not drawn) [Ligustral, 2,4-dimethyl-3-cyclohexene-1-carboxaldehyde], for which, in data set [1], the “At least 20% butylamine reduction” value is recorded as “Yes”. For the same compound, in data set [2], the “At least 20% butanethiol reduction” value was “No”.

As to `C=CC(C)(O)CCC=C(C)C` (stereo not drawn) [Linalool], the “VP (torr) @25° C.” value in data set [3] (Table 3, materials of Accord C) was determined as 0.050 torr.

`CC(C)(O)CCCC1=CCC(C=O)CC1` (stereo not drawn) [Lyral, 4-(4-hydroxy-4-methylpentyl)-3-cyclohexene-1-carboxaldehyde]: in data set [1], the “At least 20% butylamine reduction” value is “Yes”. Besides, the “At least 20% butanethiol reduction” value in data set [2] is given as “No”.

Turning to `CC(C=O)Cc1ccc(C(C)(C)C)cc1` (stereo not drawn) [P.T. Bucinal, 4-tert-butyl-alpha-methyl-hydrocinnamaldehyde], the “At least 20% butylamine reduction” value in data set [1] was “Yes”. Moreover, the “At least 20% butanethiol reduction” value in data set [2] is recorded as “No”.

On to `CC1(C)C2CC=C(CCC=O)C1C2` (stereo not drawn) [Pino acetaldehyde], for which, in data set [1], the “At least 20% butylamine reduction” value is “Yes”. Further, the “At least 20% butanethiol reduction” value in data set [2] is “Yes”.

In the case of `COC1CC2CC1C1CC(C=O)CC21` (stereo not drawn) [Scentenal, octahydro-5-methoxy-4,7-Methano-1H-indene-2-carboxaldehyde], the “VP (torr) @25° C.” value in data set [3] (Table 1, materials of Accord A) was found to be 0.010 torr; in data set [3] (Table 2, materials of Accord B) it was 0.010 torr; in data set [3] (Table 3, materials of Accord C), 0.010 torr.

`O=Cc1cccs1` [Thiophene Carboxaldehyde]: the “At least 20% butylamine reduction” value in data set [1] was “Yes”. The “At least 20% butanethiol reduction” value in data set [2] is given as “No”.

As for `CCCC/C=C/C=C/C=O` [Trans Trans 2,4-Nonadienal], the “At least 20% butylamine reduction” value in data set [1] is recorded as “Yes”. In addition, the “At least 20% butanethiol reduction” value in data set [2] is “No”.

`CCCCC/C=C/CCC=O` [Trans-4-decenal]: the “At least 20% butylamine reduction” value in data set [1] is “Yes”. For the same compound, in data set [2], the “At least 20% butanethiol reduction” value is listed as “Yes”.

With `CCCCCCCCCCC=O` [Undecyl aldehyde], in data set [1], the “At least 20% butylamine reduction” value is reported as “Yes”. Besides, in data set [2], the “At least 20% butanethiol reduction” value is “No”.

In the case of `COc1ccc(C=O)cc1` [p-anisaldehyde, p-methoxybenzene aldehyde], in data set [1], the “At least 20% butylamine reduction” value was “Yes”. For the same compound, the “At least 20% butanethiol reduction” value in data set [2] was “No”.

Values taken from patent publication US20110150817A1, “FRESHENING COMPOSITIONS COMPRISING MALODOR BINDING POLYMERS AND MALODOR CONTROL COMPONENTS” (priority 2009, published 2011).
